In ChEMBL document CHEMBL3885881, “DrugMatrix”:

Species: Rattus norvegicus
Assay: DrugMatrix - Regimen: Daily Repeat
Format: toxicity, organism-based, Sprague-Dawley
Design: regimen Daily Repeat, gender Male, age 6-8 weeks
Details: in vivo, po, 41 mg/kg, route oral GAVAGE, dose level Low, vehicle 100 % WATER; for ABSOLUTE BASOPHIL / ABSOLUTE EOSINOPHIL / ABSOLUTE LYMPHOCYTE / ABSOLUTE MONOCYTE / ABSOLUTE SEGMENTED NEUTROPHIL / BASOPHIL / EOSINOPHIL / ERYTHROCYTE COUNT / HEMATOCRIT / HEMOGLOBIN / LEUKOCYTE COUNT / LYMPHOCYTE / MEAN CORPUSCULAR HEMOGLOBIN / MEAN CORPUSCULAR HEMOGLOBIN CONCENTRATION / MEAN CORPUSCULAR VOLUME / MONOCYTE / NEUTROPHIL / NUCLEATED RED BLOOD CELLS / PLATELET COUNT: tissue Blood; for ALANINE AMINOTRANSFERASE / ALBUMIN / ALKALINE PHOSPHATASE / ASPARTATE AMINOTRANSFERASE / BLOOD UREA NITROGEN / CARBON DIOXIDE / CHLORIDE / CHOLESTEROL / CREATINE PHOSPHOKINASE / CREATININE / GLUCOSE / LACTATE DEHYDROGENASE / LIPASE / PHOSPHORUS / POTASSIUM / SODIUM / TOTAL BILIRUBIN / TOTAL PROTEIN / URIC ACID: tissue Plasma

CC(O)(P(=O)(O)O)P(=O)(O)O [ETIDRONIC ACID]
ABSOLUTE BASOPHIL (72 h, time 3 day): 0 CELLS/uL | ABSOLUTE EOSINOPHIL (72 h, time 3 day): 0 CELLS/uL | ABSOLUTE LYMPHOCYTE (72 h, time 3 day): 15847 CELLS/uL | ABSOLUTE MONOCYTE (72 h, time 3 day): 485 CELLS/uL | ABSOLUTE SEGMENTED NEUTROPHIL (72 h, time 3 day): 1868 CELLS/uL | BASOPHIL (72 h, time 3 day): 0% | EOSINOPHIL (72 h, time 3 day): 0% | ERYTHROCYTE COUNT (72 h, time 3 day): 5.74 x10E6/uL | HEMATOCRIT (72 h, time 3 day): 35.63% | HEMOGLOBIN (72 h, time 3 day): 13.33 G/DL | LEUKOCYTE COUNT (72 h, time 3 day): 18.2 x10E3/uL | LYMPHOCYTE (72 h, time 3 day): 86.67% | MEAN CORPUSCULAR HEMOGLOBIN (72 h, time 3 day): 23.27 pg | MEAN CORPUSCULAR HEMOGLOBIN CONCENTRATION (72 h, time 3 day): 37.43 G/DL | MEAN CORPUSCULAR VOLUME (72 h, time 3 day): 62.13 fL | MONOCYTE (72 h, time 3 day): 2.67% | NEUTROPHIL (72 h, time 3 day): 10.67% | NUCLEATED RED BLOOD CELLS (72 h, time 3 day): 0 /100WBC | PLATELET COUNT (72 h, time 3 day): 1274.67 x10E3/uL | ALANINE AMINOTRANSFERASE (72 h, time 3 day): 42.33 u/L | ALBUMIN (72 h, time 3 day): 4.67 G/DL | ALKALINE PHOSPHATASE (72 h, time 3 day): 379 u/L | ASPARTATE AMINOTRANSFERASE (72 h, time 3 day): 79 u/L | BLOOD UREA NITROGEN (72 h, time 3 day): 20.67 mg/dL | CARBON DIOXIDE (72 h, time 3 day): 24 mmol/L | CHLORIDE (72 h, time 3 day): 100 MEQ/L | CHOLESTEROL (72 h, time 3 day): 62.33 mg/dL | CREATINE PHOSPHOKINASE (72 h, time 3 day): 167.33 u/L | CREATININE (72 h, time 3 day): 0.19 mg/dL | GLUCOSE (72 h, time 3 day): 153 mg/dL | LACTATE DEHYDROGENASE (72 h, time 3 day): 126 u/L | LIPASE (72 h, time 3 day): 9.33 u/L | PHOSPHORUS (72 h, time 3 day): 12.13 mg/dL | POTASSIUM (72 h, time 3 day): 7.21 MEQ/L | SODIUM (72 h, time 3 day): 143.1 MEQ/L | TOTAL BILIRUBIN (72 h, time 3 day): 0.2 mg/dL | TOTAL PROTEIN (72 h, time 3 day): 5.6 G/DL | URIC ACID (72 h, time 3 day): 1.7 mg/dL | ABSOLUTE BASOPHIL (120 h, time 5 day): 0 CELLS/uL | ABSOLUTE EOSINOPHIL (120 h, time 5 day): 0 CELLS/uL | ABSOLUTE LYMPHOCYTE (120 h, time 5 day): 11460.33 CELLS/uL | ABSOLUTE MONOCYTE (120 h, time 5 day): 399 CELLS/uL | ABSOLUTE SEGMENTED NEUTROPHIL (120 h, time 5 day): 1374 CELLS/uL | BASOPHIL (120 h, time 5 day): 0% | EOSINOPHIL (120 h, time 5 day): 0% | ERYTHROCYTE COUNT (120 h, time 5 day): 5.69 x10E6/uL | HEMATOCRIT (120 h, time 5 day): 35% | HEMOGLOBIN (120 h, time 5 day): 13.13 G/DL | LEUKOCYTE COUNT (120 h, time 5 day): 13.23 x10E3/uL | LYMPHOCYTE (120 h, time 5 day): 86.67% | MEAN CORPUSCULAR HEMOGLOBIN (120 h, time 5 day): 23.1 pg | MEAN CORPUSCULAR HEMOGLOBIN CONCENTRATION (120 h, time 5 day): 37.57 G/DL | MEAN CORPUSCULAR VOLUME (120 h, time 5 day): 61.53 fL | MONOCYTE (120 h, time 5 day): 3% | NEUTROPHIL (120 h, time 5 day): 10.33% | NUCLEATED RED BLOOD CELLS (120 h, time 5 day): 0 /100WBC | PLATELET COUNT (120 h, time 5 day): 1338.67 x10E3/uL | ALANINE AMINOTRANSFERASE (120 h, time 5 day): 43 u/L | ALBUMIN (120 h, time 5 day): 4.23 G/DL | ALKALINE PHOSPHATASE (120 h, time 5 day): 323.33 u/L | ASPARTATE AMINOTRANSFERASE (120 h, time 5 day): 88.33 u/L | BLOOD UREA NITROGEN (120 h, time 5 day): 18.67 mg/dL | CARBON DIOXIDE (120 h, time 5 day): 23 mmol/L | CHLORIDE (120 h, time 5 day): 108.5 MEQ/L | CHOLESTEROL (120 h, time 5 day): 50 mg/dL | CREATINE PHOSPHOKINASE (120 h, time 5 day): 367.67 u/L | CREATININE (120 h, time 5 day): 0.18 mg/dL | GLUCOSE (120 h, time 5 day): 149.33 mg/dL | LACTATE DEHYDROGENASE (120 h, time 5 day): 265.67 u/L | LIPASE (120 h, time 5 day): 8.5 u/L | PHOSPHORUS (120 h, time 5 day): 10.7 mg/dL | POTASSIUM (120 h, time 5 day): 5.74 MEQ/L | SODIUM (120 h, time 5 day): 146.55 MEQ/L | TOTAL BILIRUBIN (120 h, time 5 day): 0.2 mg/dL | TOTAL PROTEIN (120 h, time 5 day): 5.8 G/DL | URIC ACID (120 h, time 5 day): 1.53 mg/dL
